Assay results published in US11135178B2, “Thymol and carvacol for use in medicine” (UNIVERSITY OF IOWA RESEARCH FOUNDATION, priority 2014, dated 2021).

Assays:
C2C12 myotubes [1] = experiment: Fura-2 Ca2+ ratios in C2C12 myotubes, functional screen with TRPV agonists; type: cell-based; conditions: for intracellular (cytosolic) Ca2+ rise: Fura-2 Ca2+ ratios
Method: FIG. 2. Fura-2 Ca^2+ Ratios in C2C12 myotubes in response to known activators of TRPV1 (Capsaicin), TRPV3 (Thymol, Carvacrol, 2-APB), and TRPV4 (GSK 101). ** p<0.01 compared to vehicle Ca^2+ response.
To determine the physiological significance of these TRPV ion channels in skeletal muscle Ca^2+ homeostasis, a functional screen for the magnitude of intracellular Ca^2+ rise was performed using known agonists for TRPV1 (Capsaicin), TRPV3 (Carvacrol/Thymol/2-APB) and TRPV4 (GSK101) in C2C12 myotubes (FIG. 2). C2C12 myoblasts were grown to confluency and then differentiated into myotubes by culturing in Dulbecco's Modified Eagles Medium (DMEM) with 2% horse serum for 5 days. Measurement of Fura-2 Ca2+ ratios in C2C12 myotubes was performed as described previously in cultured adipocytes (Ye L., et al., TRPV4 is a regulator of adipose oxidative metabolism, inflammation, and energy homeostasis. Cell. 2012; 151:96-110).

[2] = system: flexor digitorum brevis (FDB) muscle fibers; experiment: Confocal calcium imaging (Fluo-4AM) of freshly isolated FDB muscle fibers; type: cell-based, mouse; conditions: for effects on Ca2+ cycling: freshly isolated muscle fibers, carvacrol 100, 200, 500 μM, thymol 50, 100, 200 μM
Method: FIG. 3. Confocal calcium imaging (Fluo-4AM) of freshly isolated mouse flexor digitorum brevis (FDB) muscle fibers in response to sequential applications of carvacrol (A: 100, 200 and 500 μM) and thymol (B: 50, 100 and 200 μM).
These findings were further validated in freshly isolated mouse flexor digitorum brevis (FDB) muscle fibers (FIG. 3) to confirm the result in primary muscle cells. Primary skeletal muscle fibers were isolated from flexor digitorum brevis (FDB) muscle. In brief, FDB muscles were dissected and mechanically cleaned of connective tissue in a standard Ringer's solution containing (in mM): 146 NaCl, 5 KCl, 2 CaCl2, 1 MgCl2, and 10 HEPES, pH 7.4 with NaOH. Muscles were then shaken for 40 min at 37° C. in 1 mg/ml of collagenase A (Roche) dissolved in Ringer's solution. After collagenase treatment, individual FDB fibers were dissociated by gentle trituration using Pasteur pipettes of decreasing bore size. […] All experiments were conducted at room temperature on fibers obtained within 8 h of isolation. Confocal calcium imaging of FDB fibers were performed as described previously in cardiac myocytes but at room temperature (23° C.) (Sah R., et al., Ion channel-kinase TRPM7 is required for maintaining cardiac automaticity. Proc Natl Acad Sci USA. 2013; 110:E3037-46).

IGF-1 = experiment: qRT-PCR transcriptional screen in C2C12 myotubes: IGF-1; type: cell-based; conditions: 48 hrs
Method: (§1) FIG. 5. […] A. fold change after 48 hrs carvacrol (0, 5, and 100 μM, from left to right for each grouping); and B. thymol (0, 5, and 50 μM, from left to right for each grouping).
(§2) A qRT-PCR based transcriptional screen was then performed to assess for induction of the classical genes associated with exercise-induced changes in skeletal muscle, including growth, and enhanced endurance (FIG. 5). Transcriptional analysis of candidate genes was performed as described previously (Sah R., et al., The Timing of Myocardial Trpm7 Deletion during Cardiogenesis Variably Disrupts Adult Ventricular Function, Conduction and Repolarization. Circulation. 2013; Sah R., et al., Ion channel-kinase TRPM7 is required for maintaining cardiac automaticity. Proc Natl Acad Sci USA. 2013; 110:E3037-46) using the following primers: […]

C2C12 myotubes [3] = experiment: Myotube hypertrophy by immunostaining and confocal imaging (myotube diameter); type: cell-based; conditions: 50 μM for 48 hours
Method: FIG. 4. A. Confocal images immunostained C2C12 myotubes (staining skeletal actin and Topro-3 nuclear stain) incubated for 48 hrs in vehicle (left) or carvacrol 50 μM (right). B. quantification of myotube width. NT—not treated, Vehicle—DMSO.
It was next examined whether the increase in cytosolic Ca^2+ induced by this class of compounds could induce cellular hypertrophy in vitro in C2C12 myotubes as would occur with augmented Ca^2+ release during exercise. Immunostaining and confocal imaging of C2C12 myotubes were performed as described previously in cardiac myocytes (Sah R., et al., The Timing of Myocardial Trpm7 Deletion during Cardiogenesis Variably Disrupts Adult Ventricular Function, Conduction and Repolarization. Circulation. 2013).

PGC1α = experiment: qRT-PCR transcriptional screen in C2C12 myotubes: PGC1α; type: cell-based; conditions: 48 hrs
Method: as §1, §2

C57/B6 mice [4] = experiment: Exercise tolerance by treadmill testing of sedentary mice; type: in vivo, mouse; conditions: 20 mg/kg/day oral gavage, 5 weeks
Method: FIG. 6. Exercise tolerance measured by treadmill testing of C57/B6 mice before and after 5 weeks of either vehicle or thymol (20 mg/kg/day). A. Exercise protocol and tolerance after vehicle or thymol. B. Mean exercise tolerance pre and post treatment.
(§3) Based on these strong in vitro data, in vivo studies were then performed to determine both safety and efficacy of using thymol and/or carvacrol to mimic the effects of exercise on skeletal muscle function. […] Accordingly, the pilot studies were limited to thymol alone and treated sedentary C57/B6 mice with either vehicle (Sunflower oil) or Thymol (20 mg/kg/day) by oral gavage for 5 weeks and then assessed exercise capacity by treadmill testing, core body temperature by infra-red thermal imaging, and skeletal muscle hypertrophy by muscle weight. […] J Gen Physiol. 2014; 143:119-34)) after mild exercise (FIG. 7) and an increase in gastrocnemius muscle weight (weight bearing muscles—FIG. 8).

TRPV3 knock-out mice = experiment: In vivo experiments repeated in TRPV3 knock-out mice; parameters: species or system mouse; conditions: TRPV3 KO mice, 20 mg/kg/day, 5 weeks
Method: FIG. 9: Exercise tolerance measured by treadmill testing of TRPV3 KO mice before and after 5 weeks of either vehicle or thymol (20 mg/kg/day). A. Exercise protocol and tolerance after vehicle or thymol. B. Mean exercise tolerance pre and post treatment.
as §3

C57/B6 mice [5] = experiment: Core body temperature by infra-red thermal imaging after mild exercise; type: in vivo, mouse; conditions: sedentary C57/B6 mice, 20 mg/kg/day oral gavage, 5 weeks
Method: FIG. 7. Top: Representative thermal images of vehicle (left) and thymol (right) treated mice. Bottom: Mean data of temperature of upper and lower body in vehicle-treated vs thymol treated mice.
as §3

C57/B6 mice [6] = experiment: Skeletal muscle hypertrophy by muscle weight; type: in vivo, mouse; conditions: sedentary C57/B6 mice, 20 mg/kg/day oral gavage, 5 weeks
Method: FIG. 8: Skeletal muscle weight in sedentary C57/B6 mice after 5 weeks of treatment with either vehicle or thymol (for each group, the left bar represents vehicle and the right bar represents thymol).
as §3

| SMILES | intracellular (cytosolic) Ca2+ rise (C2C12 myotubes [1]) | effects on Ca2+ cycling [2] | induction of IGF-1 (IGF-1) [fold] | induction of PGC1α (PGC1α) [fold] | further results |
| --- | --- | --- | --- | --- | --- |
| NCCOB(c1ccccc1)c1ccccc1 [2-APB, reference compound] | reproducible and reversible increases | – | – | – | – |
| COc1cc(CNC(=O)CCCC/C=C/C(C)C)ccc1O [Capsaicin, reference compound] | essentially no effect | – | – | – | – |
| CC(C)C[C@H](NC(=O)c1cc2ccccc2s1)C(=O)N1CCN(C(=O)[C@H](CO)NS(=O)(=O)c2ccc(Cl)cc2Cl)CC1 [GSK101, reference compound] | essentially no effect | – | – | – | – |
| Cc1ccc(C(C)C)cc1O [carvacrol, 2-methyl-5-isopropylphenol] | reproducible and reversible increases | clear effects | ~8 | 13.8 | myotube hypertrophy (increase in myotube diameter) (C2C12 myotubes [3]): significant myotube hypertrophy |
| Cc1ccc(C(C)C)c(O)c1 [thymol, 2-isopropyl-5-methylphenol] | reproducible and reversible increases | clear effects | ~4 | 3 | augmented exercise capacity over vehicle treated mice (C57/B6 mice [4]): 37%; augmented thermogenesis in TRPV3 knock-out mice (TRPV3 knock-out mice): abolished; enhanced exercise capacity in TRPV3 knock-out mice (TRPV3 knock-out mice): abolished; gastrocnemius hypertrophy in TRPV3 knock-out mice (TRPV3 knock-out mice): abolished; potency at augmenting cytosolic Ca2+ relative to carvacrol ([2]; freshly isolated mouse FDB fibers): approximately twice as potent as carvacrol; potency at augmenting cytosolic Ca2+ relative to carvacrol (C2C12 myotubes [1]): approximately twice as potent as carvacrol; core body temperature after mild exercise (C57/B6 mice [5]): significant increase; gastrocnemius muscle weight (C57/B6 mice [6]): increase |
